Measured values as given in ChEMBL document CHEMBL4251615, “Discovery of anilino-furo[2,3-d]pyrimidine derivatives as dual inhibitors of EGFR/HER2 tyrosine kinase and their anticancer activity” (Eur J Med Chem, 2018).

How the values were obtained:
[1] = molecular target: Epidermal growth factor receptor (Homo sapiens, UniProt P00533); assay: Inhibition of recombinant human C-terminal His/N-terminal GST-tagged EGFR (668 to 1210 residues) expressed in baculovirus infected Sf9 cells at 10 uM using biotin-labeled poly[Glu:Tyr] (4:1) as substrate after 30 mins by Kinase-Glo plus luminescence assay relative to control
Epidermal growth factor receptor, sequence (P00533 whole entry, the tested form may be a part): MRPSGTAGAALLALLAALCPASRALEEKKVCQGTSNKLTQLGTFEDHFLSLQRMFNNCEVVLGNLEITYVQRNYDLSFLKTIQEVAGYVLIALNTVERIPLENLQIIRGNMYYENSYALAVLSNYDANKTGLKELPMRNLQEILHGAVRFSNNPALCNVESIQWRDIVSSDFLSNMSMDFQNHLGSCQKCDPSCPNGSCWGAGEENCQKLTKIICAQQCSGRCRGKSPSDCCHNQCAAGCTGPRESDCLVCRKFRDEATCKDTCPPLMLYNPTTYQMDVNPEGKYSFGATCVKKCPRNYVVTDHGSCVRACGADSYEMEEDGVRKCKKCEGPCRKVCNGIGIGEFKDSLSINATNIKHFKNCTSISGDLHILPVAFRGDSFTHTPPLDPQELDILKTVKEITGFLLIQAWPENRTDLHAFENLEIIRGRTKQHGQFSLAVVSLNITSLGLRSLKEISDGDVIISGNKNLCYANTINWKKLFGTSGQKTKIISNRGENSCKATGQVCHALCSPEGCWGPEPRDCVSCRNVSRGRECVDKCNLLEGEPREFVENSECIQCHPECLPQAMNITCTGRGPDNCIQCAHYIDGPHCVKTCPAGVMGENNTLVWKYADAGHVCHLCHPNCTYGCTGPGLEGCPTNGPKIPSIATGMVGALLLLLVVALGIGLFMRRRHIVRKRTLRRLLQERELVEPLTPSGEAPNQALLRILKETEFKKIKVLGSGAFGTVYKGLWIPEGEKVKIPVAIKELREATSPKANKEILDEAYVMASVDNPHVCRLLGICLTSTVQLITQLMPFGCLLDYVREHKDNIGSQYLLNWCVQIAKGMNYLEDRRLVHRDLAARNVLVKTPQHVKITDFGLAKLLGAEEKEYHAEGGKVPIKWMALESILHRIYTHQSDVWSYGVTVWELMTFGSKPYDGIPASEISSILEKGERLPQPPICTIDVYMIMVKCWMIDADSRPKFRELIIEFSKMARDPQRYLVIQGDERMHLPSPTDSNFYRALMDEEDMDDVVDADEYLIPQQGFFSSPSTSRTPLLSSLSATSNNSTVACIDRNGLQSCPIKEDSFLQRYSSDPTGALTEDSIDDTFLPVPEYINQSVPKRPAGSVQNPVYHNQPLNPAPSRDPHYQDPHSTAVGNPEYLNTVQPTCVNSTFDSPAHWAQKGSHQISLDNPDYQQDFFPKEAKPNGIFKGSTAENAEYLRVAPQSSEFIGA

[2] = molecular target: Receptor tyrosine-protein kinase erbB-2 (Homo sapiens) (UniProt P04626); assay: Inhibition of recombinant human N-terminal GST-tagged HER2 (679 to 1255 residues) expressed in baculovirus infected Sf9 cells at 10 uM using poly[Glu:Tyr] (4:1) as substrate after 40 mins by Kinase-Glo plus luminescence assay relative to control
Receptor tyrosine-protein kinase erbB-2 (Homo sapiens), sequence (P04626 whole entry, the tested form may be a part): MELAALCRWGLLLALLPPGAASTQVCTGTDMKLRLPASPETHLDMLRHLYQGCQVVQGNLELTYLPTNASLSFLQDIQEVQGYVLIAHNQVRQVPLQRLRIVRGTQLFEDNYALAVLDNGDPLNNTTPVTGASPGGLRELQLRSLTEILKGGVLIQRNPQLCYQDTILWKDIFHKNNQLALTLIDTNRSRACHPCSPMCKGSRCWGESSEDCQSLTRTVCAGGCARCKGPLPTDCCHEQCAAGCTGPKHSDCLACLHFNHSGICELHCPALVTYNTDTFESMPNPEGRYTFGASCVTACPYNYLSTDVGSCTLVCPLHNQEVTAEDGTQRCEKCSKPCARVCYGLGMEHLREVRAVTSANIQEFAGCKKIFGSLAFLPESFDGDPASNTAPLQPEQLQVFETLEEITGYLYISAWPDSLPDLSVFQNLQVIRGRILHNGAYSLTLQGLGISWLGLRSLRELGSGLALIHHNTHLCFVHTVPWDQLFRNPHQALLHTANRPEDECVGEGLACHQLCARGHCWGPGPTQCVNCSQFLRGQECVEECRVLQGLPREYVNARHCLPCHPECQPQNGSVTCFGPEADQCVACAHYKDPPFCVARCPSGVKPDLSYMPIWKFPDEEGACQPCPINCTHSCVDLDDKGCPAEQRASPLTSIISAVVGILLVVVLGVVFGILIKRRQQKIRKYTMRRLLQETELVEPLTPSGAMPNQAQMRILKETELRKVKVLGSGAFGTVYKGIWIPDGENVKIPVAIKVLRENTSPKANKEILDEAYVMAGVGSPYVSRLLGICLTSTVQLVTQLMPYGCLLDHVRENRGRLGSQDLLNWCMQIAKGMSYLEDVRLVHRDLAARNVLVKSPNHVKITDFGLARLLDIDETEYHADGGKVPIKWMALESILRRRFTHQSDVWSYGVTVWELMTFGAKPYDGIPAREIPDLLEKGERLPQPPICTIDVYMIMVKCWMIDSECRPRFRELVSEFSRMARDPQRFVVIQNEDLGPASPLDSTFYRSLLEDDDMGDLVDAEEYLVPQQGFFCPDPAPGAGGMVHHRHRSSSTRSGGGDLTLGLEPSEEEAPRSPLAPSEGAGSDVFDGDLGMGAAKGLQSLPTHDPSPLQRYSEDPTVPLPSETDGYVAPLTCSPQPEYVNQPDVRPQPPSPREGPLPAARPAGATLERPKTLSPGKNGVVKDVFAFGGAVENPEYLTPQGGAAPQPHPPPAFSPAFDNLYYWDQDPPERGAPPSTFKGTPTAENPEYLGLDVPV

HL-60(TB) = assay: Growth inhibition of human HL-60(TB) cells assessed as cell growth at 10 uM incubated for 48 hrs by sulforhodamine B assay relative to control; type: functional; conditions: HL-60, 48 h, read-out: Activity
RPMI-8226 = assay: Growth inhibition of human RPMI8226 cells assessed as cell growth at 10 uM incubated for 48 hrs by sulforhodamine B assay relative to control; type: functional; conditions: RPMI-8226, 48 h, read-out: Activity
A549 = assay: Growth inhibition of human A549/ATCC cells assessed as cell growth at 10 uM incubated for 48 hrs by sulforhodamine B assay relative to control; type: functional; conditions: A549, 48 h, read-out: Activity
EKVX = assay: Growth inhibition of human EKVX cells assessed as cell growth at 10 uM incubated for 48 hrs by sulforhodamine B assay relative to control; type: functional; conditions: read-out: Activity
HOP-92 = assay: Growth inhibition of human HOP92 cells assessed as cell growth at 10 uM incubated for 48 hrs by sulforhodamine B assay relative to control; type: functional; conditions: HOP-92, 48 h, read-out: Activity
NCI-H322M = assay: Growth inhibition of human NCI-H322M cells assessed as cell growth at 10 uM incubated for 48 hrs by sulforhodamine B assay relative to control; type: functional; conditions: read-out: Activity
NCI-H460 = assay: Growth inhibition of human NCI-H460 cells assessed as cell growth at 10 uM incubated for 48 hrs by sulforhodamine B assay relative to control; type: functional; conditions: NCI-H460, 48 h, read-out: Activity
NCI-H522 = assay: Growth inhibition of human NCI-H522 cells assessed as cell growth at 10 uM incubated for 48 hrs by sulforhodamine B assay relative to control; type: functional; conditions: NCI-H522, 48 h, read-out: Activity
COLO 205 = assay: Growth inhibition of human COLO205 cells assessed as cell growth at 10 uM incubated for 48 hrs by sulforhodamine B assay relative to control; type: functional; conditions: COLO 205, 48 h, read-out: Activity
HCT-116 = assay: Growth inhibition of human HCT116 cells assessed as cell growth at 10 uM incubated for 48 hrs by sulforhodamine B assay relative to control; type: functional; conditions: HCT-116, 48 h, read-out: Activity
MDA-MB-435 = assay: Growth inhibition of human MDA-MB-435 cells assessed as cell growth at 10 uM incubated for 48 hrs by sulforhodamine B assay relative to control; type: functional; conditions: MDA-MB-435, 48 h, read-out: Activity
SK-MEL-2 = assay: Growth inhibition of human SK-MEL-2 cells assessed as cell growth at 10 uM incubated for 48 hrs by sulforhodamine B assay relative to control; type: functional; conditions: SK-MEL-2, 48 h, read-out: Activity
SK-MEL-5 = assay: Growth inhibition of human SK-MEL-5 cells assessed as cell growth at 10 uM incubated for 48 hrs by sulforhodamine B assay relative to control; type: functional; conditions: SK-MEL-5, 48 h, read-out: Activity
OVCAR-3 = assay: Growth inhibition of human OVCAR3 cells assessed as cell growth at 10 uM incubated for 48 hrs by sulforhodamine B assay relative to control; type: functional; conditions: OVCAR-3, 48 h, read-out: Activity
786-0 = assay: Growth inhibition of human 786-0 cells assessed as cell growth at 10 uM incubated for 48 hrs by sulforhodamine B assay relative to control; type: functional; conditions: 786-0, 48 h, read-out: Activity
A498 = assay: Growth inhibition of human A498 cells assessed as cell growth at 10 uM incubated for 48 hrs by sulforhodamine B assay relative to control; type: functional; conditions: A498, 48 h, read-out: Activity
RXF 393 = assay: Growth inhibition of human RXF393 cells assessed as cell growth at 10 uM incubated for 48 hrs by sulforhodamine B assay relative to control; type: functional; conditions: RXF 393, 48 h, read-out: Activity
SN12C = assay: Growth inhibition of human SN12C cells assessed as cell growth at 10 uM incubated for 48 hrs by sulforhodamine B assay relative to control; type: functional; conditions: read-out: Activity
TK-10 = assay: Growth inhibition of human TK10 cells assessed as cell growth at 10 uM incubated for 48 hrs by sulforhodamine B assay relative to control; type: functional; conditions: TK-10, 48 h, read-out: Activity
PC-3 = assay: Growth inhibition of human PC3 cells assessed as cell growth at 10 uM incubated for 48 hrs by sulforhodamine B assay relative to control; type: functional; conditions: PC-3, 48 h, read-out: Activity
DU-145 = assay: Growth inhibition of human DU145 cells assessed as cell growth at 10 uM incubated for 48 hrs by sulforhodamine B assay relative to control; type: functional; conditions: DU-145, 48 h, read-out: Activity
MCF7 = assay: Growth inhibition of human MCF7 cells assessed as cell growth at 10 uM incubated for 48 hrs by sulforhodamine B assay relative to control; type: functional; conditions: MCF7, 48 h, read-out: Activity
BT-549 = assay: Growth inhibition of human BT549 cells assessed as cell growth at 10 uM incubated for 48 hrs by sulforhodamine B assay relative to control; type: functional; conditions: BT-549, 48 h, read-out: Activity
MDA-MB-468 = assay: Growth inhibition of human MDA-MB-468 cells assessed as cell growth at 10 uM incubated for 48 hrs by sulforhodamine B assay relative to control; type: functional; conditions: MDA-MB-468, 48 h, read-out: Activity

Compound	inhibition [1] [%]	growth at 10 µM (HL-60(TB)) [%]	growth at 10 µM (RPMI-8226) [%]	growth at 10 µM (A549) [%]	growth at 10 µM (EKVX) [%]	growth at 10 µM (HOP-92) [%]	growth at 10 µM (NCI-H322M) [%]	growth at 10 µM (NCI-H460) [%]	growth at 10 µM (NCI-H522) [%]	growth at 10 µM (COLO 205) [%]	growth at 10 µM (HCT-116) [%]	growth at 10 µM (MDA-MB-435) [%]	growth at 10 µM (SK-MEL-2) [%]	growth at 10 µM (SK-MEL-5) [%]	growth at 10 µM (OVCAR-3) [%]	growth at 10 µM (786-0) [%]	growth at 10 µM (A498) [%]	growth at 10 µM (RXF 393) [%]	growth at 10 µM (SN12C) [%]	growth at 10 µM (TK-10) [%]	other results
CCOC(=O)c1c(C)oc2ncnc(Nc3ccc(OCc4ccc(Cl)cc4)cc3)c12	6	91.7	111	86.5	102	107	107	107	84	111	98.7	104	105	95.8	117	98	91.7	85.9	97.8	87.4	inhibition [2]: 18%; growth at 10 µM (PC-3): 100%; growth at 10 µM (DU-145): 106%; growth at 10 µM (MCF7): 102%; growth at 10 µM (BT-549): 96.1%; growth at 10 µM (MDA-MB-468): 89.8%
CCOC(=O)c1c(C)oc2ncnc(Nc3ccc(OCc4cccc(F)c4)cc3)c12	34	109	104	76.4	94.4	104	101	68.4	85	84.2	78.1	103	102	93.4	104	86.1	91.6	116	90.3	82.7	inhibition [2]: 19%; growth at 10 µM (PC-3): 75%; growth at 10 µM (DU-145): 94.9%; growth at 10 µM (MCF7): 99.3%; growth at 10 µM (BT-549): 100%; growth at 10 µM (MDA-MB-468): 90.6%
Cc1oc2ncnc(Nc3ccc(OCc4cccc(F)c4)c(Cl)c3)c2c1C(=O)NCCO	32	42.4	70.2	53.5	47.8	41.9	86.3	34.7	27.9	85.7	64.9	62.6	78.5	73.1	78.1	61.2	81.6	60	45.3	74.7	inhibition [2]: 6%; growth at 10 µM (PC-3): 57.5%; growth at 10 µM (DU-145): 61.7%; growth at 10 µM (MCF7): 62.9%; growth at 10 µM (BT-549): 61.7%; growth at 10 µM (MDA-MB-468): 57.4%
CCOC(=O)c1c(C)oc2ncnc(Nc3ccc(OCc4cccc(C)c4)cc3)c12	6	108	117	88.9	94.5	104	94	95.5	81	100	90.6	104	100	99.2	117	103	84.4	111	88.6	94.7	inhibition [2]: 16%; growth at 10 µM (PC-3): 93.4%; growth at 10 µM (DU-145): 101%; growth at 10 µM (MCF7): 99.2%; growth at 10 µM (BT-549): 106%; growth at 10 µM (MDA-MB-468): 106%
CCOC(=O)c1c(C)oc2ncnc(Nc3ccc(OCc4ccc(Cl)c(Cl)c4)cc3)c12	0	96.6	117	95.8	102	116	97.9	102	91	111	94.5	111	103	103	118	94.3	92.3	101	93.3	88.5	inhibition [2]: 13%; growth at 10 µM (PC-3): 103%; growth at 10 µM (DU-145): 108%; growth at 10 µM (MCF7): 106%; growth at 10 µM (BT-549): 94.9%; growth at 10 µM (MDA-MB-468): 96.5%
CCCNC(=O)c1c(C)oc2ncnc(Nc3cccc(Cl)c3)c12	65	96.3	95.4	82.7	98.8	57.2	103	107	54.9	104	105	103	85.6	89.9	106	105	74.3	111	99.4	94.1	growth at 10 µM (PC-3): 81.9%; growth at 10 µM (DU-145): 90%; growth at 10 µM (MCF7): 93.5%; growth at 10 µM (BT-549): 102%; growth at 10 µM (MDA-MB-468): 81.7%
